From PubChem BioAssay (NCI) come the findings set out here.

Molecules are shown by their SMILES.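 Interpolation was linear, between the two tested concentrations surrounding the appropriate level; five concentrations were tested over 48 hours in 96-well plates. At the GI50, growth is halved. The concentration for full growth arrest is given as TGI.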

Test systems include COLO 205 colon; SF-268 CNS; OVCAR-4 ovarian; OVCAR-8 ovarian; HOP-62 NSCLC; CCRF-CEM leukemia; SR leukemia; NCI-H460 lung; SF-295 CNS; HL-60(TB) leukemia.
Common to all, as to assay: NCI tumour cell line growth inhibition, 48 h

For `Oc1ccccc1-n1c(-c2ccccc2)ccc1-c1ccccc1`, the GI50 is 15.3 µM in the test on COLO 205 colon; 10.5 µM with SF-268 CNS; 7.24 µM in the test on OVCAR-4 ovarian; 12.1 µM in the test on OVCAR-8 ovarian; 11.3 µM with HOP-62 NSCLC; 4.77 µM with CCRF-CEM leukemia. In addition, the GI50 was 4.2 µM with SR leukemia, 4.35 µM in the test on NCI-H460 lung, 6.6 µM in the test with SF-295 CNS and 5.2 µM with HL-60(TB) leukemia. Besides, the TGI was found to be 56.6 µM in the test with COLO 205 colon; 24.8 µM in the test on SF-268 CNS; 23.3 µM with OVCAR-4 ovarian; 29.6 µM in the test on OVCAR-8 ovarian; 24.2 µM with HOP-62 NSCLC; 71.1 µM with CCRF-CEM leukemia. Further, the TGI was 18 µM in the test on SR leukemia, 17.7 µM in the test on NCI-H460 lung, 21 µM with SF-295 CNS and > 100 µM in the test with HL-60(TB) leukemia.
Regarding `C[Se]C(=O)CC1=C2C=C(F)C=CC2/C(=C\c2ccc(S(C)=O)cc2)C1C` (centres undefined), the GI50 in the test with COLO 205 colon is 1.25 µM; in the test with SF-268 CNS, < 0.01 µM; in the test with OVCAR-4 ovarian, 0.131 µM; in the test with OVCAR-8 ovarian, 0.0447 µM; with HOP-62 NSCLC, < 0.01 µM; with CCRF-CEM leukemia, 0.208 µM. Further, the GI50 with SR leukemia was 1.17 µM; with NCI-H460 lung, < 0.01 µM; in the test with SF-295 CNS, < 0.0156 µM; in the test with HL-60(TB) leukemia, 0.416 µM. Moreover, the TGI was 6.36 µM in the test on COLO 205 colon; 0.0242 µM in the test on SF-268 CNS; 7.05 µM in the test on OVCAR-4 ovarian; > 100 µM with OVCAR-8 ovarian; 0.331 µM with HOP-62 NSCLC; > 20.6 µM in the test on CCRF-CEM leukemia. Also, the TGI with SR leukemia is > 100 µM; in the test on NCI-H460 lung, 0.526 µM; in the test on SF-295 CNS it was 0.0465 µM; in the test with HL-60(TB) leukemia, 2.41 µM.
Turning to `NC(CSC(c1ccccc1)(c1ccccc1)c1ccc2ccccc2c1)C(=O)O` (centres undefined), the GI50 with COLO 205 colon was 0.0816 µM; in the test on SF-268 CNS it was 0.0517 µM; in the test with OVCAR-4 ovarian, 13.1 µM; in the test with OVCAR-8 ovarian, 0.0804 µM; in the test with HOP-62 NSCLC, 0.114 µM; with CCRF-CEM leukemia, 0.0372 µM. For the same molecule, the GI50 was 0.0869 µM with SR leukemia, 0.0485 µM in the test with NCI-H460 lung, 0.0246 µM in the test with SF-295 CNS and 0.0493 µM with HL-60(TB) leukemia. Moreover, the TGI is 0.875 µM with COLO 205 colon; 13.7 µM in the test with SF-268 CNS; 33.2 µM with OVCAR-4 ovarian; 21.3 µM in the test with OVCAR-8 ovarian; 14.4 µM in the test with HOP-62 NSCLC; > 39.4 µM in the test on CCRF-CEM leukemia. The TGI is > 40.5 µM with SR leukemia, 12.1 µM in the test with NCI-H460 lung and 2.64 µM with SF-295 CNS.
`C#Cc1ccc(NC(=O)c2ccc(/C=C/C(=O)c3nccn3C)cc2)cc1`: the GI50 was 0.592 µM with COLO 205 colon; 0.76 µM in the test with SF-268 CNS; 0.727 µM with OVCAR-4 ovarian; 0.717 µM in the test on OVCAR-8 ovarian; 0.612 µM with HOP-62 NSCLC; 0.486 µM with CCRF-CEM leukemia. Also, the GI50 with SR leukemia is 0.115 µM; in the test on NCI-H460 lung it was 0.586 µM; in the test on SF-295 CNS, 0.537 µM; in the test with HL-60(TB) leukemia, 0.507 µM. Besides, the TGI is 1.36 µM in the test on COLO 205 colon; 4.5 µM in the test on SF-268 CNS; 25 µM with OVCAR-4 ovarian; 8.79 µM in the test with OVCAR-8 ovarian; 1.65 µM with HOP-62 NSCLC; 1.59 µM in the test with CCRF-CEM leukemia. The TGI in the test on SR leukemia turned out to be 3.33 µM; in the test on NCI-H460 lung, 1.64 µM; with SF-295 CNS, 1.25 µM; in the test with HL-60(TB) leukemia, 1.37 µM.
As for `COc1ccc(C2S/C(=C\c3ccc(OC)cc3OC)C(=O)N2NC(=O)Cc2ccccc2)cc1` (centres undefined), the TGI in the test with COLO 205 colon, in the test with SF-268 CNS, in the test with OVCAR-4 ovarian, with OVCAR-8 ovarian, with HOP-62 NSCLC and in the test on CCRF-CEM leukemia was > 100 µM each time. Besides, the TGI with SR leukemia, with NCI-H460 lung, in the test on SF-295 CNS and with HL-60(TB) leukemia was > 100 µM in each case.
For `C=C(C)[C@H]1CC/C(C)=C/CCC(C)C(=O)CC/C(CO)=C\[C@@H]1O` (some centres undefined), the GI50 was > 100 µM in the test on COLO 205 colon; 88.9 µM with SF-268 CNS; 20.4 µM with OVCAR-4 ovarian; > 100 µM in the test with OVCAR-8 ovarian; > 100 µM in the test with HOP-62 NSCLC; 44.6 µM with CCRF-CEM leukemia. Further, the GI50 in the test with SR leukemia is > 100 µM; in the test with NCI-H460 lung it was 58.8 µM; in the test with SF-295 CNS it was 70 µM; in the test with HL-60(TB) leukemia it was 45.4 µM. Also, the TGI in the test on COLO 205 colon, in the test on SF-268 CNS, in the test on OVCAR-4 ovarian, in the test with OVCAR-8 ovarian, in the test on HOP-62 NSCLC and in the test with CCRF-CEM leukemia was > 100 µM each time. In addition, the TGI with SR leukemia, in the test with NCI-H460 lung, in the test on SF-295 CNS and in the test on HL-60(TB) leukemia was > 100 µM throughout.
In the case of `Cn1c(O)c(C(=O)Nc2ccc([N+](=O)[O-])cc2)c(=O)n(C)c1=S`, the TGI is 19.9 µM in the test with COLO 205 colon; 10.7 µM with SF-268 CNS; 13.5 µM in the test with OVCAR-4 ovarian; 14.9 µM with OVCAR-8 ovarian; 4.05 µM in the test with HOP-62 NSCLC; > 100 µM in the test on CCRF-CEM leukemia. The TGI in the test with SR leukemia was > 100 µM; with NCI-H460 lung it was 24.1 µM; in the test with SF-295 CNS, 4.86 µM; with HL-60(TB) leukemia, > 100 µM.
